Laboratory results as given in patent US20220380347A1, “INHIBITORS OF CYSTEINE PROTEASES AND METHODS OF USE THEREOF” (Pardes Biosciences, Inc., priority 2020, published 2022).
Where “and” joins values, the source holds several entries; their conditions need not be identical. Equal entries are not always repeated. Where two headings read alike, the source gives them in different places.

Legend:
229E Mpro = 229E Mpro (Human coronavirus 229E, UniProt P0C6X1); assay: 229E Mpro enzymatic assay (standard methods, SARS-CoV2 Mpro assay given as exemplary); assay type: biochemical, human coronavirus (HCov) 229E
Chain of 229E Mpro (P0C6X1 2966-3267): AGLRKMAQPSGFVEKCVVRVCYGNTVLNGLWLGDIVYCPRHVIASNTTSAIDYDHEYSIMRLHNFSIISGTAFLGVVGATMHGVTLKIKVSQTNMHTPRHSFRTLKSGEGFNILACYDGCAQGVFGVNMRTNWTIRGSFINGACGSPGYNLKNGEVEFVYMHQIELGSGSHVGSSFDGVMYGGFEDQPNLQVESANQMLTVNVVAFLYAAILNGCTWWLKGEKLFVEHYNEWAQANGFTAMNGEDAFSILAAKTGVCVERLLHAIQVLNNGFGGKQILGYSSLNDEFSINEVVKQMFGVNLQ
Protocol: Compounds were assayed using standard methods to assess compound activity and IC50. As an exemplary for assessment of the SARS-COV2 Mpro, the C-His6-tagged Mpro (NC_045512) was cloned, expressed in E. coli and purified. The assay buffer contained 20 mM of Tris-HCl (pH 7.3), 100 mM of NaCl, 1 mM of EDTA, 5 mM of TCEP and 0.1% BSA. The final concentrations of the Mpro protein and substrate were 25 nM and 25 μM, respectively, in the Mpro enzymatic assay. The Km of the Mpro substrate for the protease was 13.5 μM.
The compounds were added to an assay plate. […] For no inhibition control (ZPE, zero percent effect), no compound was added.
IC50 values of compounds were calculated with the GraphPad Prism software using the nonlinear regression model of log(inhibitor) vs. response—Variable slope (four parameters). The inhibition activity was calculated using the formula below, IC50 values is calculated using the Inhibition % data.
Inhibition %=[(Sample-Average ZPE)/(Average HPE-Average ZPE)]*100%^#

[1] = target: COVID-19 (nCoV-2019, SARS-CoV2) Mpro (Severe acute respiratory syndrome coronavirus 2, UniProt P0DTD1); assay: COVID-19 (nCoV-2019, SARS-CoV2) Mpro enzymatic assay; assay type: biochemical; details: 25 nM Mpro, 25 μM substrate; read-out: COVID-19 Mpro IC50
HCov OC43 = assay: HCoV OC43 cytopathic effect (CPE) assay, CellTiter Glo; assay type: cell-based, human coronavirus (HCov) OC43
Protocol: Example 238: Evaluation of antiviral activity of compounds against human coronavirus (HCov) 229E and OC43 in the cytopathic effect (CPE) assays
Compounds were assayed using standard methods against multiple coronaviral strains, including HCoV 229E and OC43 strains. The antiviral activity of compounds was calculated based on the protection of the virus-induced CPE at each concentration normalized by the virus control.
Reference compound used was remdesivir; detection reagent: CellTiter Glo.) The CPE were measured by CellTiter Glo following the manufacturer's manual. The antiviral activity of compounds was calculated based on the protection of the virus-induced CPE at each concentration normalized by the virus control.
Cell viability was measured with CellTiter Glo.

[2] = read-out: OC43 IC50 (uM) MEDIAN, median
[3] = Betacoronavirus 1, OC43, read-out: OC43 IC50 (uM) MEDIAN, median

SMILES | EC50 (229E Mpro; read-out: 229E Mpro EC50) | IC50 [1] | IC50 (HCov OC43; [2]) | EC50 (229E Mpro; 229E Mpro EC50) | IC50 (HCov OC43; [3])
C[C@@]1(O)C[C@H](C(=O)N(c2ccc(S(F)(F)(F)(F)F)cc2)C(C(=O)NC2CCC(F)(F)CC2)c2cccnc2F)N(C#N)C1 (single isomer, unassigned) [1158 Isomer 2] | < 2000 nM | 2 to 10 µM | < 2 µM | – | –
CO[C@@H]1C[C@H](C(=O)N(c2ccc(S(F)(F)(F)(F)F)cc2)C(C(=O)NC2CCOC(C)(C)C2)c2cccnc2)N(C#N)C1 (single isomer, unassigned) [1165 Isomer 1] | – | < 2 µM | – | < 2000 nM | < 2 µM
CO[C@@H]1C[C@H](C(=O)N(c2ccc(S(F)(F)(F)(F)F)cc2)C(C(=O)NC2CCOC(C)(C)C2)c2cccnc2)N(C#N)C1 (single isomer, unassigned) [1165 Isomer 2] | < 2000 nM | 10 to 30 µM | 2 to 10 µM | – | –
CO[C@@H]1C[C@H](C(=O)N(c2ccc(S(F)(F)(F)(F)F)cc2)C(C(=O)Nc2ccc3c(c2)OCCO3)c2cccnc2)N(C#N)C1 (single isomer, unassigned) [1170 Isomer 1] | – | 10 to 30 µM | – | 2000 to 10000 nM | 2 to 10 µM
CO[C@@H]1C[C@H](C(=O)N(c2ccc(S(F)(F)(F)(F)F)cc2)C(C(=O)Nc2ccc3c(c2)OCCO3)c2cccnc2)N(C#N)C1 (single isomer, unassigned) [1170 Isomer 2] | – | < 2 µM | < 2 µM | < 2000 nM | –
CO[C@@H]1C[C@H](C(=O)N(c2ccc(S(F)(F)(F)(F)F)cc2)C(C(=O)N2CC3(COC3)C2)c2cccnc2)N(C#N)C1 (single isomer, unassigned) [1171 Isomer 1] | – | 10 to 30 µM and < 2 µM | < 2 µM | < 2000 nM | 2 to 10 µM
CO[C@@H]1C[C@H](C(=O)N(c2ccc(S(F)(F)(F)(F)F)cc2)C(C(=O)N2CCCC3(COC3)C2)c2cccnc2)N(C#N)C1 (single isomer, unassigned) [1175 Isomer 2] | < 2000 nM | 10 to 30 µM | 2 to 10 µM | – | –
CO[C@@H]1C[C@H](C(=O)N(c2ccc(S(F)(F)(F)(F)F)cc2)C(C(=O)NCC2(C)COC2)c2cccnc2)N(C#N)C1 (single isomer, unassigned) [1176 Isomer 1] | – | < 2 µM | – | < 2000 nM | < 2 µM
CO[C@@H]1C[C@H](C(=O)N(c2ccc(S(F)(F)(F)(F)F)cc2)C(C(=O)NCC2(C)COC2)c2cccnc2)N(C#N)C1 (single isomer, unassigned) [1176 Isomer 2] | < 2000 nM | 10 to 30 µM | 2 to 10 µM | – | –
COc1ccc(NC(=O)C(c2cccnc2)N(C(=O)[C@H]2C[C@@H](OC)CN2C#N)c2ccc(S(F)(F)(F)(F)F)cc2)cn1 (single isomer, unassigned) [1180 Isomer 1] | – | 2 to 10 µM | – | 2000 to 10000 nM | 2 to 10 µM
COc1ccc(NC(=O)C(c2cccnc2)N(C(=O)[C@H]2C[C@@H](OC)CN2C#N)c2ccc(S(F)(F)(F)(F)F)cc2)cn1 (single isomer, unassigned) [1180 Isomer 2] | – | < 2 µM | < 2 µM | < 2000 nM | –
CO[C@@H]1C[C@H](C(=O)N(c2ccc(S(F)(F)(F)(F)F)cc2)C(C(=O)NC2CC3CCC(C2)O3)c2cccnc2)N(C#N)C1 (single isomer, unassigned) [1187 Isomer 1] | – | < 2 µM | – | < 2000 nM | < 2 µM
CO[C@@H]1C[C@H](C(=O)N(c2ccc(S(F)(F)(F)(F)F)cc2)C(C(=O)NC2CC3CCC(C2)O3)c2cccnc2)N(C#N)C1 (single isomer, unassigned) [1187 Isomer 2] | < 2000 nM | < 2 µM | < 2 µM | – | –
CO[C@@H]1C[C@H](C(=O)N(c2ccc(S(F)(F)(F)(F)F)cc2)C(C(=O)NCC(C)(C)OC)c2cccnc2)N(C#N)C1 (single isomer, unassigned) [1194 Isomer 1] | – | < 2 µM | – | < 2000 nM | < 2 µM
CO[C@@H]1C[C@H](C(=O)N(c2ccc(S(F)(F)(F)(F)F)cc2)C(C(=O)NCC(C)(C)OC)c2cccnc2)N(C#N)C1 (single isomer, unassigned) [1194 Isomer 2] | < 2000 nM | 10 to 30 µM | 2 to 10 µM | – | –
CO[C@@H]1C[C@H](C(=O)N(c2ccc(S(F)(F)(F)(F)F)cc2)C(C(=O)NCCc2cc(F)cc(F)c2)c2cccnc2)N(C#N)C1 (single isomer, unassigned) [1196 Isomer 1] | – | 2 to 10 µM | – | < 2000 nM | 2 to 10 µM

SMILES | EC50 (229E Mpro; read-out: 229E Mpro EC50) | IC50 [1] | IC50 (HCov OC43; [2]) | EC50 (229E Mpro; 229E Mpro EC50) | IC50 (HCov OC43; [3])
CO[C@@H]1C[C@H](C(=O)N(c2ccc(S(F)(F)(F)(F)F)cc2)C(C(=O)NCCc2cc(F)cc(F)c2)c2cccnc2)N(C#N)C1 (single isomer, unassigned) [1196 Isomer 2] | < 2000 nM | < 2 µM | < 2 µM | – | –
CO[C@@H]1C[C@H](C(=O)N(c2ccc(S(F)(F)(F)(F)F)cc2)C(C(=O)NCCc2cccc(F)c2)c2cccnc2)N(C#N)C1 (single isomer, unassigned) [1197 Isomer 1] | – | < 2 µM | – | < 2000 nM | < 2 µM
CO[C@@H]1C[C@H](C(=O)N(c2ccc(S(F)(F)(F)(F)F)cc2)C(C(=O)NCCc2cccc(F)c2)c2cccnc2)N(C#N)C1 (single isomer, unassigned) [1197 Isomer 2] | < 2000 nM | 2 to 10 µM | 2 to 10 µM | – | –
CO[C@@H]1C[C@H](C(=O)N(c2ccc(C(C)(C)C)cc2)C(C)(C(=O)NC2CCC(F)(F)CC2)c2cnccn2)N(C#N)C1 (single isomer, unassigned) [1198 Isomer 1] | – | 10 to 30 µM | – | 2000 to 10000 nM | 2 to 10 µM
CO[C@@H]1C[C@H](C(=O)N(c2ccc(C(C)(C)C)cc2)C(C)(C(=O)NC2CCC(F)(F)CC2)c2cnccn2)N(C#N)C1 (single isomer, unassigned) [1198 Isomer 2] | – | < 2 µM | < 2 µM | < 2000 nM | –
CO[C@@H]1C[C@H](C(=O)N(c2ccc(S(F)(F)(F)(F)F)cc2)C(C(=O)NC2CCC(F)(F)CC2)c2cnccc2C)N(C#N)C1 (single isomer, unassigned) [1199 Isomer 1] | < 2000 nM | < 2 µM | – | – | < 2 µM
CO[C@@H]1C[C@H](C(=O)N(c2ccc(S(F)(F)(F)(F)F)cc2)C(C(=O)NC2CCC(F)(F)CC2)c2cnccc2C)N(C#N)C1 (single isomer, unassigned) [1199 Isomer 2] | < 2000 nM | < 2 µM | < 2 µM | – | –
CO[C@@H]1C[C@H](C(=O)N(c2ccc(S(F)(F)(F)(F)F)cc2)C(C(=O)NC2CCC(F)(F)CC2)c2cnccc2C(F)(F)F)N(C#N)C1 (single isomer, unassigned) [1202 Isomer 1] | – | < 2 µM | – | < 2000 nM | < 2 µM
CO[C@@H]1C[C@H](C(=O)N(c2ccc(S(F)(F)(F)(F)F)cc2)C(C(=O)NC2CCC(F)(F)CC2)c2cnccc2C(F)(F)F)N(C#N)C1 (single isomer, unassigned) [1202 Isomer 2] | < 2000 nM | < 2 µM | < 2 µM | – | –
CO[C@@H]1C[C@H](C(=O)N(c2ccc(C(C)(C)C)cc2F)C(C(=O)NC2CCC(F)(F)CC2)c2cncc(F)c2)N(C#N)C1 (single isomer, unassigned) [1207 Isomer 1] | – | 2 to 10 µM | 10 to 30 µM | 10000 to 30000 nM | –
CO[C@@H]1C[C@H](C(=O)N(c2ccc(C(C)(C)C)cc2F)C(C(=O)NC2CCC(F)(F)CC2)c2cncc(F)c2)N(C#N)C1 (single isomer, unassigned) [1207 Isomer 2] | – | > 30 µM | > 30 µM | > 30000 nM | –
C[C@H]1CN(C#N)[C@H]1C(=O)N(c1ccc(S(F)(F)(F)(F)F)cc1)C(C(=O)NC1CCC(F)(F)CC1)c1cncc(F)c1 (single isomer, unassigned) [1210 Isomer 1] | – | 10 to 30 µM | 10 to 30 µM | < 2000 nM | –
C[C@H]1CN(C#N)[C@H]1C(=O)N(c1ccc(S(F)(F)(F)(F)F)cc1)C(C(=O)NC1CCC(F)(F)CC1)c1cncc(F)c1 (single isomer, unassigned) [1210 Isomer 2] | < 2000 nM | < 2 µM | < 2 µM | – | –
C[C@@H]1CN(C#N)[C@H]1C(=O)N(c1ccc(S(F)(F)(F)(F)F)cc1)C(C(=O)NC1CCC(F)(F)CC1)c1cncc(F)c1 (single isomer, unassigned) [1211 Isomer 1] | – | 2 to 10 µM | – | < 2000 nM | < 2 µM
C[C@@H]1CN(C#N)[C@H]1C(=O)N(c1ccc(S(F)(F)(F)(F)F)cc1)C(C(=O)NC1CCC(F)(F)CC1)c1cncc(F)c1 (single isomer, unassigned) [1211 Isomer 2] | < 2000 nM | < 2 µM | < 2 µM | – | –
